In paper PMC11784839, “Monoaminergic neurotransmitters are bimodal effectors of tau aggregation” (Science Advances, 2025):

Target: tau (Homo sapiens, UniProt P10636)
Test: MCE Phenols Library screening, tau biosensor cell seeding assay (AvZ)
Assay type: cell-based
Settings: for AvZ (average z score of seeding, SDs from the mean level of seeding): 10 μM phenol in cell cultures, AD brain homogenate preincubated 16 hours, two biological replicates, positive = catalyzes seeding, negative = inhibits; for Z repl 1 / Z Repl 2: Z score; for Z repl 1 / raw data 1: replicate 1; for Z Repl 2 / raw data 2: replicate 2
[1] = average puncta of the two replicates
[2] = average Z score of the two replicates, MCE Phenols Library screen
[3] = average Z score of the two replicates, tau seeding

Sequence of tau (P10636 623-695 limits assumed): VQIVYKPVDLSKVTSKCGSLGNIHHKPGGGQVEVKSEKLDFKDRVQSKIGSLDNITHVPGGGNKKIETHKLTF

Compound	AvZ (average z score of seeding, SDs from the mean level of seeding)	Z repl 1	Z Repl 2	av puncta (average of raw data 1 and 2)	raw data 1 (puncta)	raw data 2 (puncta)	av puncta [1]	av Z [2]	raw data 1 (raw puncta)	raw data 2 (raw puncta)	av Z (average Z score of the two replicates, tau biosensor seeding, MCE Phenols Library screen)	av Z [3]	av Z (average Z score of two replicates, Phenols Library screen)
CCCOC(=O)c1cc(O)c(O)c(O)c1 [Propyl gallate]	-0.849	-0.716	-0.982	10013.9	17751.7	2276.1	–	–	–	–	–	–	–
CCCOC(=O)c1ccc(O)cc1 [Propylparaben]	0.488	0.084	0.893	24829.8	27354.6	22304.9	–	–	–	–	–	–	–
O=Cc1ccc(O)c(O)c1 [Protocatechualdehyde]	-0.588	-0.894	-0.283	–	15614.9	9745.34	12680.1	–	–	–	–	–	–
O=C(O)c1ccc(O)c(O)c1 [Protocatechuic acid]	-0.565	-0.928	-0.202	–	15212.3	10612.8	12912.5	–	–	–	–	–	–
Cc1cc(O)c2c(=O)c3c(O)cc(O)c4c5c(O)cc(O)c6c(=O)c7c(O)cc(C)cc7c(c65)c(c2c1)c34 [Protohypericin]	–	-0.657	-0.804	–	18463.4	4183.21	11323.3	-0.73	–	–	–	–	–
OC[C@]1(O)COc2cc(O)ccc2-c2cc(O)c(O)cc2C1 [Protosappanin B]	–	-0.022	-0.809	–	–	–	15106.6	-0.415	26082.6	4130.62	–	–	–
COc1cc(O)c2c(=O)c(-c3ccc(O)cc3)coc2c1 [Prunetin]	–	3.008	2.297	49877.5	62461.3	37293.6	–	–	–	–	2.652	–	–
O=C1C[C@@H](c2ccc(O)cc2)Oc2cc(O[C@@H]3O[C@H](CO)[C@@H](O)[C@H](O)[C@H]3O)cc(O)c21 [Prunin]	–	-0.134	0.469	21257.9	24743.3	17772.6	–	–	–	–	–	0.168	–
COc1cc(/C=C/c2ccc(O)cc2)cc(OC)c1 [Pterostilbene]	–	-0.975	-0.298	–	14642.4	9586.42	12114.4	-0.636	–	–	–	–	–
O=c1c(-c2ccc(O)cc2)coc2c([C@@H]3O[C@H](CO[C@@H]4OC[C@@H](O)[C@H](O)[C@H]4O)[C@@H](O)[C@H](O)[C@H]3O)c(O)ccc12 [Puerarin 6''-O-Xyloside]	–	-0.042	-0.868	–	–	–	14673.6	-0.455	25849	3498.14	–	–	–
O=C1c2ccccc2C(=O)c2c(O)c(O)cc(O)c21 [Purpurin]	–	0.055	-0.946	–	–	–	14831.1	-0.446	27004.8	2657.32	–	–	–
O=C(O)c1cccc(O)c1O [Pyrocatechuic acid]	-0.338	-0.028	-0.648	–	–	–	15926.2	–	26009.1	5843.4	–	–	–
Oc1cccc(O)c1O [Pyrogallol]	-0.851	-0.635	-1.067	10051	18727.1	1374.88	–	–	–	–	–	–	–
O=c1c(O)c(-c2ccc(O)c(O)c2)oc2cc(O)c(O)c(O)c12 [Quercetagetin]	–	-1.958	-1.183	1487.44	2842.17	132.721	–	-1.57	–	–	–	–	–
O=c1c(O)c(-c2ccc(O)c(O)c2)oc2cc(O[C@@H]3O[C@H](CO)[C@@H](O)[C@H](O)[C@H]3O)c(O)c(O)c12 [Quercetagitrin]	–	-1.577	-1.176	3815.32	7422.91	207.732	–	-1.376	–	–	–	–	–
O.O.O=c1c(O)c(-c2ccc(O)c(O)c2)oc2cc(O)cc(O)c12 [Quercetin (dihydrate)]	–	-1.56	-1.162	3988.66	7625.22	352.104	–	-1.361	–	–	–	–	–
C[C@@H]1O[C@@H](Oc2c(-c3ccc(O)c(O)c3)oc3cc(O)cc(O)c3c2=O)[C@H](O)[C@H](O)[C@H]1O [Quercitrin]	–	-0.089	-0.329	–	–	–	17263.5	-0.209	25279.8	9247.27	–	–	–
O=C1c2ccccc2C(=O)c2c(O)ccc(O)c21 [Quinizarin]	–	-1.021	-0.252	–	14091.5	10071.4	12081.4	-0.637	–	–	–	–	–
CC(=O)CCc1ccc(O)cc1 [Raspberry ketone]	-0.371	0.027	-0.77	–	–	–	15608.2	–	26674.5	4541.81	–	–	–
Oc1ccc(/C=C/c2cc(O)cc(O)c2)cc1 [Resveratrol]	–	-0.355	-0.816	–	22084.8	4048.5	13066.7	-0.586	–	–	–	–	–
COc1cc(O)c2c(=O)c(OC)c(-c3ccc(OC)c(OC)c3)oc2c1 [Retusin]	–	-0.575	-0.37	–	19450.4	8814.06	14132.2	-0.472	–	–	–	–	–
O=c1c(O[C@@H]2OC[C@@H](O)[C@H](O)[C@H]2O)c(-c2ccc(O)c(O)c2)oc2cc(O)cc(O)c12 [Reynoutrin]	–	-0.491	-0.104	–	–	–	16057.3	-0.297	20455.1	11659.4	–	–	–
COc1cc(O)c2c(=O)c(O)c(-c3ccc(O)c(O)c3)oc2c1 [Rhamnetin]	–	-0.386	0.151	18050.7	21720.4	14381.1	–	–	–	–	–	–	-0.117
O=C(O)c1cc(O)c2c(c1)C(=O)c1cccc(O[C@@H]3O[C@H](CO)[C@@H](O)[C@H](O)[C@H]3O)c1C2=O [Rhein 8-Glucoside]	–	0.64	0.434	25718.8	34038.2	17399.4	–	–	–	–	–	0.537	–
C[C@@H]1O[C@@H](Oc2cc(O)c3c(=O)c(O)c(-c4ccc(O)cc4)oc3c2O)[C@H](O)[C@H](O)[C@H]1O [Rhodionin]	–	–	-1.086	6714.99	12258.1	1171.9	–	-1.13	–	–	–	–	–
C[C@@H]1O[C@@H](O[C@H]2[C@H](Oc3cc(O)c4c(=O)cc(-c5ccc(O)cc5)oc4c3)O[C@H](CO)[C@@H](O)[C@@H]2O)[C@H](O)[C@H](O)[C@H]1O [Rhoifolin]	–	0.9	-0.094	24460.4	37158.3	11762.4	–	–	–	–	–	0.403	–
